# Patent US10407467B2, “Polymyxin derivatives and their use in combination therapy together with different antibiotics” (priority 2013, dated 2019)
# Read-outs that look alike come from different tables or passages of the source.
# What was measured:
# Test in all cases: MIC, sole activity (no second agent)
# Type in all cases: cell-based
# Acinetobacter baumannii = conditions: for MIC A. baumannii ATCC BAA-747 / MIC A. baumannii NCTC 13424: Table 6A, no second agent, different supplier of Cation-adjusted MHB; for MIC: Acinetobacter baumannii, NCTC13424
# Description: (§1) To evaluate the potency and spectrum of the compounds both alone and in combination with another agent, susceptibility testing was performed against up to four strains of each of the four Gram negative pathogens, Escherichia coli, Pseudomonas aeruginosa, Klebsiella pneumoniae and Acinetobacter baumannii.
# (§2) The inoculum was prepared by making a direct suspension of isolated colonies (selected from an 18-24 hour Mueller-Hinton agar plate) adjusted to the 0.5 McFarland standard.
# (§3) The assays were performed in duplicate.
# (§4) In cases where the duplicate values varied by less than 2-fold, the lower of the two values is reported. If a variation of greater than 2-fold was observed, the assay was considered non-valid. Several of the compounds were subjected to multiple tests, and where this is the case, the MIC reflects the modal value obtained.
# (§5) MICs were determined as described herein, except that a different supplier of Cation-adjusted MHB was used. […] Values are reported relative to Polymyxin B.
# Pseudomonas aeruginosa = conditions: for MIC P. aeruginosa ATCC 27853 / MIC P. aeruginosa CCUG 59347: Table 6A, no second agent, different supplier of Cation-adjusted MHB; for MIC: Pseudomonas aeruginosa
# Description: as §1, §2, §3, §4, §5
# Klebsiella pneumoniae = conditions: for MIC K. pneumoniae ATCC 4352 / MIC K. pneumoniae ATCC BAA-2146: Table 6A, no second agent, different supplier of Cation-adjusted MHB; for MIC: Klebsiella pneumoniae
# Description: as §1, §2, §3, §4, §5
# Escherichia coli = conditions: for MIC E. coli ATCC25922 / MIC E. coli NCTC 13441: Table 6A, no second agent, different supplier of Cation-adjusted MHB; for MIC: Escherichia coli
# Description: as §1, §2, §3, §4, §5
Compound,MIC A. baumannii ATCC BAA-747 (Acinetobacter baumannii) [micrograms/mL],MIC A. baumannii NCTC 13424 (Acinetobacter baumannii) [micrograms/mL],MIC P. aeruginosa ATCC 27853 (Pseudomonas aeruginosa) [micrograms/mL],MIC P. aeruginosa CCUG 59347 (Pseudomonas aeruginosa) [micrograms/mL],MIC K. pneumoniae ATCC 4352 (Klebsiella pneumoniae) [micrograms/mL],MIC K. pneumoniae ATCC BAA-2146 (Klebsiella pneumoniae) [micrograms/mL],MIC E. coli ATCC25922 (Escherichia coli) [micrograms/mL],MIC E. coli NCTC 13441 (Escherichia coli) [micrograms/mL],further results
2-Aminomethylbenzoyl polymyxin B nonapeptide [Example A31],>8,>8,0.5,2,2,>8,8,2,
3-(R)-3-Amino-5- methylhexanoyl polymyxin B nonapeptide [Example A45],>8,>8,0.5,1,1,,2,2,
3-(RS)-3-amino octanoyl polymyxin B nonapeptide. Isomer 1 [Example A32],2,2,0.5,1,0.5,0.25,0.5,0.5,
3-Methylpiperidine-3- carbonyl polymyxin B nonapeptide [Example A39],>8,>8,2,4,8,>8,>8,8,
"4-[3(R,S)-3-Amino-3- cyclohexanepropanamido] piperidine-4-carbonyl polymyxin B nonapeptide [Example A28]",>8,>8,2,4,>8,>8,>8,>8,
5-Hydroxypiperidine-3- carbonyl polymyxin B nonapeptide [Example A50],,2,1,2,0.25,2,1,2,
"CC[C@H]1OC(=O)[C@H](C)[C@@H](O[C@H]2C[C@@](C)(OC)[C@@H](O)[C@H](C)O2)[C@H](C)[C@@H](O[C@@H]2O[C@H](C)C[C@H](N(C)C)[C@H]2O)[C@](C)(O)C[C@@H](C)CN(C)[C@H](C)[C@@H](O)[C@]1(C)O [Azithromycin, reference compound]",,,,,,,,,"MIC (Acinetobacter baumannii; Table 7F, A. baumannii NCTC 13424, second agent none): 8 µg/mL; MIC (Pseudomonas aeruginosa; ATCC10145, Table 7F, P. aeruginosa ATCC 10145, second agent none, read-out: MIC P. aeruginosa ATCC 10145): 32 µg/mL; MIC (Klebsiella pneumoniae; CCUG59349, Table 7F, K. pneumoniae CCUG 59349, second agent none, read-out: MIC K. pneumoniae CCUG 59349): > 32 µg/mL; MIC (Klebsiella pneumoniae; Table 7F, K. pneumoniae ATCC4352, second agent none, read-out: MIC K. pneumoniae ATCC4352): 0.25 µg/mL; MIC (Escherichia coli; NCTC13441, Table 7F, E. coli NCTC 13441, second agent none, read-out: MIC E. coli NCTC 13441): > 32 µg/mL; MIC (Escherichia coli; Table 7F, E. coli ATCC25922, second agent none, read-out: MIC E. coli ATCC25922): 1 µg/mL"
"C[C@H]1[C@H](NC(=O)/C(=N\OC(C)(C)C(=O)O)c2csc(N)n2)C(=O)N1S(=O)(=O)O [Aztreonam, reference compound]",,,,,,,,,"MIC (Acinetobacter baumannii; Second Agent none (Table 7E), read-out: MIC A. baumannii NCTC 13424): 8 µg/mL; MIC (Pseudomonas aeruginosa; ATCC10145, Second Agent none (Table 7E), read-out: MIC P. aeruginosa ATCC 10145): 4 µg/mL; MIC (Klebsiella pneumoniae; ATCC4352, Second Agent none (Table 7E), read-out: MIC K. pneumoniae ATCC4352): ≤ 0.06 µg/mL; MIC (Klebsiella pneumoniae; CCUG59349, Second Agent none (Table 7E), read-out: MIC K. pneumoniae CCUG 59349): > 32 µg/mL; MIC (Escherichia coli; ATCC25922, Second Agent none (Table 7E), read-out: MIC E. coli ATCC25922): ≤ 0.06 µg/mL; MIC (Escherichia coli; NCTC13441, Second Agent none (Table 7E), read-out: MIC E. coli NCTC 13441): > 32 µg/mL"
"O=C(O)c1cn(C2CC2)c2cc(N3CCNCC3)c(F)cc2c1=O [Ciprofloxacin, reference compound]",,,,,,,,,"MIC (Acinetobacter baumannii; Second Agent none (Table 7B, by row order), read-out: MIC A. baumannii (NCTC 13424)): 1 µg/mL; MIC (Pseudomonas aeruginosa; ATCC27853, Second Agent none (Table 7B, by row order), read-out: MIC P. aeruginosa ATCC 27853): 0.125 µg/mL; MIC (Pseudomonas aeruginosa; CCUG59626, Second Agent none (Table 7B, by row order), read-out: MIC P. aeruginosa CCUG 59626): 0.5 µg/mL; MIC (Klebsiella pneumoniae; ATCC4352, Second Agent none (Table 7B, by row order), read-out: MIC K. pneumoniae (ATCC4352)): ≤ 0.06 µg/mL; MIC (Klebsiella pneumoniae; ATCCBAA1706, Second Agent none (Table 7B, by row order), read-out: MIC K. pneumoniae ATCC BAA-1706): 4 µg/mL; MIC (Klebsiella pneumoniae; CCUG59348, Second Agent none (Table 7B), read-out: MIC K. pneumoniae CCUG 59348): > 32 µg/mL; MIC (Klebsiella pneumoniae; NCTC13442, Second Agent none (Table 7B), read-out: MIC K. pneumoniae NCTC 13442): 2 µg/mL; MIC (Escherichia coli; ATCC25922, Second Agent none (Table 7B), read-out: MIC E. coli ATCC25922): ≤ 0.06 µg/mL; MIC (Escherichia coli; CCUG59342, Second Agent none (Table 7B), read-out: MIC E. coli CCUG 59342): 16 µg/mL; MIC (Escherichia coli; NCTC9001, Second Agent none (Table 7B), read-out: MIC E. coli (NCTC9001)): ≤ 0.06 µg/mL"
"CO[C@@H]1[C@@H](OC(N)=O)[C@@H](O)[C@H](Oc2ccc3c(O)c(NC(=O)c4ccc(O)c(CC=C(C)C)c4)c(=O)oc3c2C)OC1(C)C [Novobiocin, reference compound]",,,,,,,,,"MIC (Acinetobacter baumannii; Table 7H, A. baumannii NCTC 13424, second agent none): 4 µg/mL; MIC (Pseudomonas aeruginosa; ATCC10145, Table 7H, P. aeruginosa ATCC 10145, second agent none, read-out: MIC P. aeruginosa ATCC 10145): > 32 µg/mL; MIC (Klebsiella pneumoniae; CCUG59349, Table 7H, K. pneumoniae CCUG 59349, second agent none, read-out: MIC K. pneumoniae CCUG 59349): > 32 µg/mL; MIC (Klebsiella pneumoniae; Table 7H, K. pneumoniae ATCC4352, second agent none, read-out: MIC K. pneumoniae ATCC4352): 0.25 µg/mL; MIC (Escherichia coli; NCTC13441, Table 7H, E. coli NCTC 13441, second agent none, read-out: MIC E. coli NCTC 13441): > 32 µg/mL; MIC (Escherichia coli; Table 7H, E. coli ATCC25922, second agent none, read-out: MIC E. coli ATCC25922): 16 µg/mL"
(1- aminomethylcyclohexane) carbonyl polymyxin B nonapeptide [Example A34],>8,>8,0.5,2,8,>8,8,>8,
(2S)-2-Amino-3- cyclohexanepropanoyl polymyxin B nonapeptide [Example A16],>8,>8,1,>8,>8,>8,>8,>8,
(2S)-Morpholine-2-carbonyl polymyxin B nonapeptide [Example A40],>8,>8,2,4,4,8,8,4,
(2S)-piperazine-2-carbonyl polymyxin B nonapeptide [Example A49],>8,>8,2,4,2,>8,4,4,
"(2S,3S)-3-Amino-2-hydroxy- 5-methylhexanoyl polymyxin B decapeptide [Example A18]",4,8,0.5,1,4,4,8,4,
